From patent US11679168B2, “Caspase-3-triggered molecular self-assembling PET probes and uses thereof” (The Board of Trustees of the Leland Stanford Junior …, priority 2018, dated 2023)
Values belong to the molecule of their own block, whether it stands above or below them. Peptide text beside a SMILES is read from it. * marks the point of attachment. Cbz = O=C(OCc1ccccc1)*; CH2F = FC*

Assays:
[1] = Condensation kinetics of aminothiols with CBT (HPLC assay); format: physicochemical; conditions: substituted cysteine analogues with CBT, FIG. 50B
Description: General Methods for Measuring Kinetics of Condensation Reactions Between Aromatic Nitriles and Aminothiols: The 2nd order rate constants for condensation reactions between aromatic nitriles and aminothiols were measured by using HPLC assays. To solutions of aromatic nitriles (100 μM) in phosphate buffered saline (PBS) (1×, pH=7.4) were added aminothiol (1.0 equiv.), TCEP (2.0 equiv.) and NaHCO3 (3 equiv.). The reaction solutions were kept at room temperature (23° C.) and monitored by HPLC at different time points. The conversion rates were calculated using the peak integrals of aromatic nitriles and the condensation products at 254 nm. Based on 2nd order reaction law, 1/[aromatic nitrile] was plotted against time and the slope of the linear regression result gives the 2nd order rate constant.

[2] = L-cysteine with CBT; reported in Reference 13; cited from earlier work
[3] = tested on: caspase-3 activity in H460 cells; assay: Confocal imaging of cisplatin-treated H460 cells with C-SNAF4-Cy5; format: cell-based, human; conditions: 50 μM
Description: Confocal Microscopy Imaging of Cisplatin-treated H460 Cells With C-SNAF4-Cy5: NCI-H460 cells at 70% confluency were either left naïve or treated with cisplatin (10 μM) for 24 hours. After removal of the medium, cells were incubated with 2 μM C-SNAF4-Cy5 at 37° C. for 24 hours. For the inhibition study, cells were first incubated with pan-caspase inhibitor Z-VAD-fmk (50 μM, 30 min) before incubation with C-SNAF4-Cy5.

[4] = target: T1, caspase-3 (Homo sapiens, UniProt P42574); assay: Nanoaggregation of [19F]-C-SNAT4 after caspase-3 activation (DLS, TEM); format: biochemical
T1 construct: before and after addition of active caspase-3 (Casp3) enzyme; purchased Sigma; host or cells: E. coli
T1 sequence (P42574 29-175 limits assumed): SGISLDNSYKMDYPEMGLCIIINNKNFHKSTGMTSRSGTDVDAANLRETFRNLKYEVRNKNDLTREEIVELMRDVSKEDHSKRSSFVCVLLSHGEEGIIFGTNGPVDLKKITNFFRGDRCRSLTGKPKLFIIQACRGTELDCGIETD
T1 sequence (P42574 176-277 limits assumed): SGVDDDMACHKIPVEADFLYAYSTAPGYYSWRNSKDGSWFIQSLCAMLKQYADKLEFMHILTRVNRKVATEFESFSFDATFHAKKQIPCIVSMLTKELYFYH
Description: FIG. 1C illustrates the TEM images of [^19F]-C-SNAT4 before and after addition of active caspase-3 (Casp3) enzyme. [^19F]-C-SNAT4 (20 μM) was incubated with caspase-3 (2×10^−3U mL^−1, human, recombinant from E. coli, Sigma) in caspase buffer at 37° C. overnight.
FIG. 12 illustrates in vitro validation and nanoaggregation characterization of [^19F]-C-SNAT4. [^19F]-C-SNAT4 and formation of cycl-[^19F]-SNAT4 after [^19F]-C-SNAT4 incubated with caspase-3 were analyzed by (A) HPLC, (B) DLS of [^19F]-C-SNAT4 without and with caspase-3 incubation. [^19F]-C-SNAT4 (20 μM) was incubated with caspase-3 (2×10^−3U mL^−1, human, recombinant from E. coli, Sigma) in caspase buffer (50 mM HEPES, 100 mM NaCl, 1 mM EDTA, 10 mM TCEP, 10% glycerol and 0.1% CHAPS at pH 7.4) at 37° C. overnight.

[5] = tested on: H460 cells; assay: MTS cell viability assay in H460 cells; format: cell-based, human
Description: (§1) FIG. 13 illustrates cellular toxicity analysis in H460 and H1299 cells. Cells were incubated at different concentration of [^19F]-C-SNAT4 over 24 hours. The viability of cells was measured using an MTS assay.
FIG. 14 illustrates a Cisplatin dose response curves were assessed in H460 cells by MTS assay. The curves generated by GraphPad Prism software.
FIG. 36A illustrates the toxicity of C-SNAF4-Cy5 in heathy and apoptotic NCI-H460 measured with MTS assay (37° C., 24 h) in heathy H460 cells.
FIG. 36B illustrates the toxicity of C-SNAF4-Cy5 in H460 cells treated with cisplatin (1 μM, 24 hours) followed by incubation with C-SNAF4-Cy5 (37° C., 24 h).
Cell study: All cell lines were assessed to be pathogen-free prior to use in this study. […] Cell viability was assessed with CellTiter 96.RM AQueous One Solution Cell Proliferation Assay (MTS) kit from Promega (Madison, Wis., USA). […] After 60 min of incubation at 37° C., the absorbance was read at 490 nm with a 96 well plate reader from BMG LABTECH GmbH (Ortenberg, Germany).

[6] = tested on: H1299 cells; assay: MTS cell viability assay in H1299 cells; format: cell-based, human; conditions: H1299, up to 100 μM, 24 hours
Description: as §1
Cell study: All cell lines were assessed to be pathogen-free prior to use in this study. Human H460 and H1299 lung adenocarcinoma cells non-small cell lung cancer H460 (ATCC) and H1299 (ATCC) were cultured in Dulbecco's modified Eagle's medium (DMEM) (Invitrogen), supplement with 10% v/v fetal bovine serum (Life Technologies Inc.) and 1% v/v penicillin-streptomycin (100 IU/ml, […]; Life Technologies Inc.) at 37° C. in a humidified atmosphere maintained at 5% CO2. X-radiation was performed with an X-ray generator (0.2 mm Cu and 1 mm Al filter, 150 kV, Hitachi). The irradiation was carried out at room temperature at a dose rate of 0.2 Gy/min. Cell viability was assessed with CellTiter 96.RM AQueous One Solution Cell Proliferation Assay (MTS) kit from Promega (Madison, Wis., USA). Briefly, 100 μl aliquots of the treated or untreated cell suspension were seeded into 96-well polystyrene tissue culture plates and 20 μl of assay reagent was added to each well. After 60 min of incubation at 37° C., the absorbance was read at 490 nm with a 96 well plate reader from BMG LABTECH GmbH (Ortenberg, Germany).

[7] = tested on: H460 tumor; assay: Caliper measurement of H460 tumor volumes; format: in vivo, mice; conditions: H460, high dose (9 mg/kg every other day x3, i.v.), day 13 after implantation
Description: (§2) FIG. 5B illustrates caliper measurement of H460 and H1299 tumor volumes in saline and drug-treated mice. Measurements are time after cell implantation, with high dose of cisplatin-treated (Intravenous injection, 9 mg/kg every other day for three times) in H460 and in H1299 tumor-bearing mice as arrow indicated (arrow). n=5 for each group.
(§3) Animal model and probe administration: For subcutaneous tumor models, H460 or H1299 (2×10^6 cells in 100 μl of PBS) were injection subcutaneously on the back of female nu/nu nude mice (aged 6 to 8 weeks; Charles River Laboratories). Tumor dimensions were measured periodically using a caliper (by the same researcher), with tumor volumes calculated by the following equation: volume=a×b×c/2, where a, b, and c represent three orthogonal axis of the tumor. Treatment-response analysis was performed 24 h after drug treatment. For all other experiments, animals were culled 26 h after therapy and tissues excised for analysis. For chemotherapy mouse model, tumors were grown to about 150 mm^3, and then treatment that consisted of cisplatin (Sigma-Aldrich; Low dose: 3 mg/kg; high dose: 9 mg/kg) or saline was initiated through intravenous administration, every other day for three times. Total mouse body weight and tumor size were measured every other day. Treat or left untreated. […]

[8] = tested on: H1299 tumor; assay: Caliper measurement of H1299 tumor volumes; format: in vivo, mice; conditions: H1299, high dose (9 mg/kg every other day x3, i.v.), day 21 after implantation
Description: as §2, §3

SMILES: N[C@@H](CS)C(=O)O [L-cysteine]
- second-order reaction rate [1]: 3.2 M⁻¹ s⁻¹
- 2nd order rate constant k [2]: 2.9 M⁻¹ s⁻¹

SMILES: COC(=O)C[C@H](NC(=O)[C@H](C)NC(=O)[C@@H](NC(=O)OCc1ccccc1)C(C)C)C(=O)CF [Z-VAD-fmk] (Cbz-Val-Ala-Asp(OMe)-CH2F)
- effect on C-SNAF4-Cy5 fluorescence [3]: Fluorescence abolishment

- average size of nanoparticles (DLS) [4]: around 200 nm
SMILES: CCSSCC(NC(=O)C(CC(=O)O)NC(=O)C(NC(=O)C(CCC(=O)O)NC(=O)C(CC(=O)O)NC(C)=O)C(C)C)C(=O)NCC(=O)NC(Cc1cn(CCOCCOCCOCCF)nn1)C(=O)NCc1ccc(C(=O)NCCCOc2cnc(C#N)nc2)cc1 (stereo not drawn) [[^19F]-C-SNAT4]
- cytotoxicity ([5]; H460, up to 100 μM, 24 hours): no toxicity
- cytotoxicity [6]: no toxicity

SMILES: N.N.[Cl][Pt][Cl] [cisplatin]
- IC50 ([5]; H460, MTS assay, read-out: half-maximal inhibitory concentration (IC50)): 9.51 µM
- tumor volume [7]: 690.8±88.6 mm^3
- tumor volume [8]: 1348.5±356.0 mm^3
